{
  "source": "patent US10011573B2",
  "about": "“Human androgen receptor DNA-binding domain (DBD) compounds as therapeutics and methods for their use” (The University of British Columbia, priority 2014, dated 2018)",
  "key": {"AR Q592A mutant": {"target": "AR Q592A mutant (Homo sapiens, UniProt P10275, Q592A)", "sequence (P10275 whole entry Q592A)": "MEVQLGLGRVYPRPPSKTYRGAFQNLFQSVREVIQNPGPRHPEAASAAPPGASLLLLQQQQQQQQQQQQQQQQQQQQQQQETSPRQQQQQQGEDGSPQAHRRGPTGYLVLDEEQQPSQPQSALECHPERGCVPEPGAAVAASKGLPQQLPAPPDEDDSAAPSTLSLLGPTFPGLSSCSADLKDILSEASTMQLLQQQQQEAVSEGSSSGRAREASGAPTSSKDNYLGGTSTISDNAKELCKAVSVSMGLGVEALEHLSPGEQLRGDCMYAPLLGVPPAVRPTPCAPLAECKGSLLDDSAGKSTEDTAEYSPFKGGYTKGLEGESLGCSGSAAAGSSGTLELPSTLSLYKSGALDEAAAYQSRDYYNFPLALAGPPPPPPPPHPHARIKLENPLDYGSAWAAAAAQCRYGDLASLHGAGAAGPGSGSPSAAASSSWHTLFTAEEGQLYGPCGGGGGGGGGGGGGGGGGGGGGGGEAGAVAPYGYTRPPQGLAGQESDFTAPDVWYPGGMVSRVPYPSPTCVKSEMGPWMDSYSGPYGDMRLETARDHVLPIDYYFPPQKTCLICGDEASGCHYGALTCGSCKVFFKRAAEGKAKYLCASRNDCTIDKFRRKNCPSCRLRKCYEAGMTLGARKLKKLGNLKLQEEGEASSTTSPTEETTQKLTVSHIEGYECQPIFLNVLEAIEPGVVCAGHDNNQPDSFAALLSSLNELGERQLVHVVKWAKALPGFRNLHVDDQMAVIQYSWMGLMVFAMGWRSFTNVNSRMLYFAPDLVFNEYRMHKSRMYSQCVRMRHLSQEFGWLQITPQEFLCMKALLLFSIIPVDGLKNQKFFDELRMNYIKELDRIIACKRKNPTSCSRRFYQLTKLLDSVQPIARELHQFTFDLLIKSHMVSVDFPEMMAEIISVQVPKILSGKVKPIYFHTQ", "assay": "ARR3tk-luciferase reporter assay in PC3 cells, AR Q592A", "method": "Cells were then treated with compounds at various concentrations and 0.1 nMR1881 (in 100% ethanol) for 24 h. […] Cell lysis was carried out with 60 μl of 1X passive lysis buffer/well (Promega™)\n20 μl of cell lysate from each well were mixed with 50 μl of luciferase assay reagent (Promega™), and luminescence was recorded on a TECAN™ M200pro plate reader. Luciferase assays with splice variant AR were performed the same way but with only 5 ng of pcDNA3.1 AR-V7 (to limit the high level of AR-V7 expression) and no R1881."}, "endogenous wild type AR": {"test_system": "endogenous wild type AR", "assay": "ARR3tk-luciferase assay in R1-AD1 cells", "format": "cell-based, human"}, "PC3 cells": {"test_system": "PC3 cells", "assay": "Cell viability (MTS) assay, PC3", "format": "cell-based, human", "details": "0.1 nM R1881", "description": "(§1) 1. Cell Culture: LNCaP and PC3 human prostate cancer cells were obtained from American Type Culture Collection (ATCC, Manassas, Va.) and grown in RPMI 1640 medium supplemented with 5% fetal bovine serum (FBS) (Invitrogen). […]. All cells were maintained at 37° C. in 5% CO2.\n(§2) 7. Cell viability assay: The PC3, LNCaP, and MDV3100-resistant cells were plated at 3,000 cells per well in RPMI 1640 containing 5% charcoal stripped serum (CSS) in a 96-well plate, treated with 0.1 nM R1881 and compounds (0-25 μM) for 96 hrs."}, "full-length human AR": {"target": "T1, full-length human AR (Homo sapiens, UniProt P10275)", "T1 construct": "expressed in transfected cells; host or cells: PC3 (AR-negative human prostate cancer cells)", "T1 sequence (P10275 1-920)": "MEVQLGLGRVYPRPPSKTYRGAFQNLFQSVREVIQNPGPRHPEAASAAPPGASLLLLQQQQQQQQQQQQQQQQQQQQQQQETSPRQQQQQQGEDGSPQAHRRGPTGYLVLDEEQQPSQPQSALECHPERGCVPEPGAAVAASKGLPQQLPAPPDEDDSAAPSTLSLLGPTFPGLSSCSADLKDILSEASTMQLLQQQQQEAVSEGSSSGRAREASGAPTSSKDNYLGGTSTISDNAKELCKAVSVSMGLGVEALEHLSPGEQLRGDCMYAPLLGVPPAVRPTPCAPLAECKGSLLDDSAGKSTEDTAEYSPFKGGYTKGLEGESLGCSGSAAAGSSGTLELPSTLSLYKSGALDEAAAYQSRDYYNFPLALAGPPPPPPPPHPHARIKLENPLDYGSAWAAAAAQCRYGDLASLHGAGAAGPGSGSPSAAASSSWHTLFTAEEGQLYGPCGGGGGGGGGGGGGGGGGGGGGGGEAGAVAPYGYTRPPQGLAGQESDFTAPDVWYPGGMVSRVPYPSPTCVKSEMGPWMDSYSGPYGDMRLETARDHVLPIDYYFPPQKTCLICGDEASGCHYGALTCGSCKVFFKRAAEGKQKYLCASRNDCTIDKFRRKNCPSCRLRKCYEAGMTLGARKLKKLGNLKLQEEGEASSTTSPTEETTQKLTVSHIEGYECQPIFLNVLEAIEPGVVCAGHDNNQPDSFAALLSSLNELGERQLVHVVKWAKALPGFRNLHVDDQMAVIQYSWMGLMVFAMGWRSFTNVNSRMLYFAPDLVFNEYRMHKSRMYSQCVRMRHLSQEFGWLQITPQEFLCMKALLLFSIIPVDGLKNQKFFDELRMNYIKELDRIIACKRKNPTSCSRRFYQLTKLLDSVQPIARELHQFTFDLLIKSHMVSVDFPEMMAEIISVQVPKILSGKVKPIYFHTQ", "assay": "ARR3tk-luciferase reporter assay in PC3 cells, wild-type AR", "format": "cell-based", "details": "transient AR, R1881", "description": "(§3) 9. Transient Transfection: The PC3/MCF7 cells were seeded into a 96-well plate (2,000 cells/well). After 24 hrs, the wild-type AR (50 ng/well)/AR mutants and AR3TK-luciferase plasmids (1:3) were co-transfected into PC3 cells or ERE-luciferase (50 ng/well) was transfected into MCF7 cells using transfection reagent TT20. 24 hrs after the transfection, the cells were treated with the compounds at various concentrations. And 24 hrs later, the cells were lysed and the reading was taken using a luminometer."}, "LNCaP cells": {"test_system": "LNCaP cells", "assay": "Cell viability (MTS) assay, LNCaP", "format": "cell-based, human", "details": "0.1 nM R1881", "description": "as §1, §2"}, "YFP-AR [1]": {"target": "T2, YFP-AR (Homo sapiens, UniProt P10275)", "T2 construct": "plasmids encoding YFP-tagged full-length AR (yellow fluorescent protein, YFP-AR); expressed in transfected cells; host or cells: PC3", "T2 sequence (P10275 1-920)": "T1 sequence (P10275 1-920)", "assay": "Luciferase assay with YFP-AR in PC3 cells", "format": "cell-based", "source_text": "the underlined primer sections anneal to the specified template, although their 5′-extensions (italicized) are complementary to the corresponding primer sequence of the other PCR. Plasmid assembly is achieved by mixing the PCR products from each reaction (Klock, H. E. et al. (2008) Combining the polymerase incomplete primer extension method for cloning and mutagenesis with microscreening to accelerate structural genomics efforts. Proteins 71, 982-994), followed by transformation into chemically competent bacteria. A similar strategy was used to clone the AR-DBD+hinge into the Pan4 vector (avidity) expressing the N-terminal biotinylation sequence ([…] ) and C-terminal His tag. YFP-AR plasmid was a gift from Dr. Jan Trapman (van Royen, M. E. et al. (2012) Stepwise androgen receptor dimerization. J. Cell Sci. 125, 1970-1979) and is based on pEYFP-C1 (Clontech™). YFP-V7 was constructed by polymerase incomplete primer extension method using the following primers and templates: AR-V7 insert from pcDNA3. AR-V7 template"}, "FKBP5 [2]": {"test_system": "FKBP5", "assay": "Western blot FKBP5 protein in R1-D567 cells", "format": "cell-based, human", "description": "(§4) Cell lysates (40 μl) from luciferase assays (96-well plate) were separated on a 10% SDS-polyacrylamide mini gel. Protein was transferred to methanol-charged PVDF membranes and probed with anti-AR441 (mouse, Sigma™) monoclonal primary antibody. Blots were also probed with polyclonal anti-actin (rabbit, Sigma™) to show equal loading and polyclonal anti-PARP/anti-cleaved PARP (rabbit, Sigma™) to test for induction of apoptosis. Lysates from CWR-R1 cells were additionally probed with polyclonal anti-FKBP5 (rabbit, Sigma™) following 2 days of incubation with compounds."}, "AR Q592D mutant": {"target": "T3, AR Q592D mutant (Homo sapiens, UniProt P10275, Q592D)", "T3 construct": "Full-length human AR (hARWT) or splice variant (AR-V7) was encoded on a pcDNA3.1 expression plasmid; expressed in transfected cells; host or cells: PC3", "T3 sequence (P10275 whole entry Q592D, canonical isoform)": "as the sequence (P10275 whole entry Q592A) above, with A592D counted along it", "assay": "ARR3tk-luciferase reporter assay in PC3 cells, AR Q592D", "format": "cell-based", "description": "8. Mutation Studies: The residues in the predicted binding site were mutated using the Quickchange™ Site-Directed Mutagenesis Kit as per the instructions.\nas §3"}, "PARP": {"test_system": "PARP", "assay": "Western blots against PARP / cleaved PARP (apoptosis)", "format": "cell-based, human", "details": "PC3 luciferase assay lysates", "description": "as §4"}, "FKBP5 [3]": {"test_system": "FKBP5", "assay": "Western blot FKBP5 protein in R1-AD1 cells", "format": "cell-based, human", "description": "as §4"}, "YFP-AR [4]": {"target": "T2, YFP-AR", "assay": "Confocal microscopy of YFP-AR nuclear localization in PC3 cells", "format": "cell-based", "description": "Transfection of YFP-AR or YFP-V7 plasmids (100 ng per well) was performed using TT20 (3 μl) for 48 h. […] After aspiration of the media, cells were washed once with PBS and fixed in 4% paraformaldehyde overnight at 4° C., followed by mounting on charged cover slides using DAPI mount (Vector Laboratories)."}},
  "note": "Like-named read-outs stand apart in the source and are kept apart here.",
  "data": [
    {"smiles": "c1ccc(-c2csc(N3CCOCC3)n2)cc1", "note": "[Compound 14228, 4-(4-phenylthiazol-2-yl)morpholine]", "values": [
      {"measurement": "IC50", "setting": "AR Q592A mutant", "value": "3000 to 6000", "unit": "nM"},
      {"measurement": "inhibition of wild type AR transcriptional activity", "setting": "endogenous wild type AR", "value": "could inhibit"},
      {"measurement": "inhibition of cell growth, PC3 (AR-negative)", "setting": "PC3 cells", "value": "no effect"},
      {"measurement": "IC50", "setting": "full-length human AR", "value": 2360, "unit": "nM"},
      {"measurement": "inhibition of cell growth, LNCaP", "setting": "LNCaP cells", "value": "strongly inhibits"},
      {"measurement": "inhibition of YFP-AR driven luciferase expression", "setting": "YFP-AR [1]", "value": "could be inhibited"},
      {"measurement": "FKBP5 protein expression, R1-D567 cells", "setting": "FKBP5 [2]", "value": "reduced"},
      {"measurement": "inhibition of Q592D AR luciferase expression", "setting": "AR Q592D mutant", "value": "not affected"},
      {"measurement": "toxicity / induction of apoptosis (PARP cleavage)", "setting": "PARP", "value": "little or no toxicity"},
      {"measurement": "FKBP5 protein expression, R1-AD1 cells", "setting": "FKBP5 [3]", "value": "reduced"},
      {"measurement": "R1881-stimulated nuclear localization of YFP-AR", "setting": "YFP-AR [4]", "value": "did not prevent R1881-stimulated nuclear localization"},
      {"measurement": "nuclear localization of YFP-AR in the absence of R1881", "setting": "YFP-AR [4]", "value": "could not stimulate any nuclear localization"}
    ]},
    {"smiles": "Brc1ncn(-c2csc(N3CCOCC3)n2)c1Br", "note": "[Compound 14449]", "values": [
      {"measurement": "IC50", "setting": "AR Q592A mutant", "value": "3000 to 6000", "unit": "nM"},
      {"measurement": "inhibition of wild type AR transcriptional activity", "setting": "endogenous wild type AR", "value": "could inhibit"},
      {"measurement": "inhibition of cell growth, PC3 (AR-negative)", "setting": "PC3 cells", "value": "ineffective"},
      {"measurement": "IC50", "setting": "full-length human AR", "value": 340, "unit": "nM"},
      {"measurement": "inhibition of cell growth, LNCaP", "setting": "LNCaP cells", "value": "concentration-dependent inhibition of the cell growth"},
      {"measurement": "inhibition of YFP-AR driven luciferase expression", "setting": "YFP-AR [1]", "value": "could be inhibited"},
      {"measurement": "FKBP5 protein expression, R1-D567 cells", "setting": "FKBP5 [2]", "value": "reduced"},
      {"measurement": "concentration at which Q592D AR is inhibited", "setting": "AR Q592D mutant; PC3 cells", "value": "≥ 25", "unit": "µM"},
      {"measurement": "toxicity / induction of apoptosis (PARP cleavage)", "setting": "PARP", "value": "little or no toxicity"},
      {"measurement": "FKBP5 protein expression, R1-AD1 cells", "setting": "FKBP5 [3]", "value": "reduced"},
      {"measurement": "R1881-stimulated nuclear localization of YFP-AR", "setting": "YFP-AR [4]; 10 nM R1881, 25 μM compound, 6 h", "value": "did not prevent R1881-stimulated nuclear localization"},
      {"measurement": "nuclear localization of YFP-AR in the absence of R1881", "setting": "YFP-AR [4]; 25 μM compound", "value": "could not stimulate any nuclear localization"}
    ]}
  ]
}
